# Patent publication US20150225369A1, “DDR2 INHIBITORS FOR THE TREATMENT OF OSTEOARTHRITIS” (Merck Patent GmbH, priority 2012, published 2015)
# Molecular target: T1, HEK293 transfected with human DDR2 (Homo sapiens, UniProt Q16832)
# T1 construct: expressed in transfected cells; host or cells: HEK293 (PLT460F_(DDR2)-P7-1)
# T1 sequence (Q16832 22-855): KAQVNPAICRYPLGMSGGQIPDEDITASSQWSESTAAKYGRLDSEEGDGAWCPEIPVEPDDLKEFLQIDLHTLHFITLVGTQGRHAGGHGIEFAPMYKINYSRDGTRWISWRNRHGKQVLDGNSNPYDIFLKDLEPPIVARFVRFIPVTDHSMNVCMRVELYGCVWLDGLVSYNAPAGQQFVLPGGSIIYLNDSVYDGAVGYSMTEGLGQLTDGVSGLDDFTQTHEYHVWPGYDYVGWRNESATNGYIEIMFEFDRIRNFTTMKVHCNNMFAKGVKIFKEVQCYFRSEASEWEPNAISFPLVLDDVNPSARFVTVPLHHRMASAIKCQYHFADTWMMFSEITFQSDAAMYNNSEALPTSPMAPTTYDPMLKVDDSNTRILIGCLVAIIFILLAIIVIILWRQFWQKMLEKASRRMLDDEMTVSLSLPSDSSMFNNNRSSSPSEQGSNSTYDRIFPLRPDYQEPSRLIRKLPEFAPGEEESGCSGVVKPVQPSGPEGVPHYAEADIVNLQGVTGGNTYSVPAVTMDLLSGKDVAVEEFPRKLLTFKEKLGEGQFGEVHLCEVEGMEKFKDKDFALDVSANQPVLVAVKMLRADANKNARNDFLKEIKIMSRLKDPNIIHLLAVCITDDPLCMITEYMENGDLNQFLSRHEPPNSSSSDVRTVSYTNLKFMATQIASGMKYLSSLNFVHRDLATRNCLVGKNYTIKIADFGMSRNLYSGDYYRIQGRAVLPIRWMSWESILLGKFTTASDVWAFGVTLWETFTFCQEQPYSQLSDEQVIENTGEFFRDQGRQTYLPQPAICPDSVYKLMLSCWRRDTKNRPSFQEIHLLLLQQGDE
# Assay: Phospho-DDR2 cellular assay (collagen II induced DDR2 phosphorylation, ELISA)
# Type: cell-based
# Conditions: HEK293 transfected with human DDR2, 50 μg/ml chicken collagen II, 16 h; read-out: IC50 [p-DDR2]
# How it was run: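 Cells seeded 48 h in 10% FBS, serum-starved 8 h, then given compound (5% DMSO) with 50 μg/ml chicken collagen II for 16 h at 37 °C. Lysates captured on anti-DDR2 antibody plates; phospho-DDR2 detected with HRP anti-phosphotyrosine antibody by chemiluminescence.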
row,IC50 [nM],SMILES
1,30,Cc1cc(Oc2ccc(CNC(=O)Nc3cc(C(F)(F)F)cn(C)c3=O)cc2C)ccn1 [compound 6]
2,12,CNC(=O)c1cc(Oc2ccc(CNC(=O)Nc3cc(C(F)(F)F)cn(C)c3=O)cc2C)ccn1 [compound 7]
3,30,COc1ncc(C)cc1NC(=O)NCc1ccc(Oc2ccncc2)cc1 [compound 18]
4,24,CNC(=O)c1cc(Oc2ccc(CNC(=O)Nc3cc(C)cnc3OC)cc2)ccn1 [compound 19]
5,14,CNC(=O)c1cc(Oc2ccc(CNC(=O)Nc3cc(Cl)cnc3OC)cc2)ccn1 [compound 21]
6,6.8,CNC(=O)c1cc(Oc2ccc(CNC(=O)Nc3cc(Cl)cnc3OC)cc2C)ccn1 [compound 23]
7,43,CNC(=O)c1cc(Oc2ccc(CNC(=O)Nc3cc(C(F)(F)F)cnc3Cl)cc2C)ccn1 [compound 26]
8,17,COc1ncc(Cl)cc1NC(=O)NCc1ccc(Oc2ccnc(C)c2)c(C)c1 [compound 28]
9,60,Cc1cc(Oc2ccc(CNC(=O)Nc3cc(C(F)(F)F)cnc3Cl)cc2C)ccn1 [compound 30]

row,SMILES,IC50 [nM]
1,CNC(=O)c1cc(Oc2ccc(CNC(=O)Nc3cc(C(F)(F)F)cn(C)c3=O)cc2)ccn1 [compound 8],28
